# Laboratory results: ChEMBL document CHEMBL3091337, “Novel piperidinylamino-diarylpyrimidine derivatives with dual structural conformations as potent HIV-1 non-nucleoside reverse transcriptase inhibitors” (Bioorg Med Chem Lett, 2013)
# Structures can show the parent of a compound that is named as a salt.
# Legend:
# [1] = Cytotoxicity against human MT4 cells after 5 days by MTT assay; format: cell-based
# [2] = Selectivity index, ratio of CC50 for human MT4 cells to EC50 for HIV1 3B; format: toxicity, cell-based; conditions: read-out: Ratio CC50/EC50
# [3] = Selectivity index, ratio of CC50 for human MT4 cells to EC50 for drug-resistant HIV1 RES056 harboring reverse transcriptase K103N/Y181C double mutant; format: toxicity, cell-based; conditions: read-out: Ratio CC50/EC50
# [4] = tested on: Human immunodeficiency virus 1; assay: Antiviral activity against drug-resistant HIV1 RES056 harboring reverse transcriptase K103N/Y181C double mutant infected in human MT-4 cells assessed as protection against virus-induced cytopathicity after 5 days by MTT assay; format: functional, organism-based; conditions: Human immunodeficiency virus 1, RES056, MT4, 120 h
# [5] = tested on: Human immunodeficiency virus 1; assay: Antiviral activity against HIV1 3B infected in human MT-4 cells assessed as protection against virus-induced cytopathicity after 5 days by MTT assay; format: functional, organism-based; conditions: Human immunodeficiency virus 1, 3B, MT4, 120 h
# [6] = target: Human immunodeficiency virus type 1 reverse transcriptase (Human immunodeficiency virus 1, UniProt Q72547); assay: Inhibition of recombinant HIV1 reverse transcriptase using poly rA:dT as template/primer after 1 hr by ELISA
SMILES,CC50 at 120 h [1] [µM],selectivity ratio [2],selectivity ratio [3],EC50 [4] [µM],EC50 [5] [µM],IC50 [6] [µM]
Cc1cc(C#N)cc(C)c1Oc1cc(NC2CCNCC2)nc(Nc2ccc(C#N)cc2)n1,4.2,112,4,0.95,0.038,–
Cc1cc(C#N)cc(C)c1Oc1cc(NC2CCN(Cc3ccc(S(N)(=O)=O)cc3)CC2)nc(Nc2ccc(C#N)cc2)n1,12,93,3,3.9,0.13,–
Cc1cc(C)c(Oc2cc(NC3CCN(Cc4ccc(S(N)(=O)=O)cc4)CC3)nc(Nc3ccc(C#N)cc3)n2)c(C)c1,11,61,< 1,> 28,0.19,–
O=C1Nc2ccc(Cl)cc2[C@@](C#CC2CC2)(C(F)(F)F)O1 [EFAVIRENZ],> 6.3,–,–,–,0.007,–
Cc1cc(C#N)cc(C)c1Oc1cc(NC2CCN(Cc3ccncc3)CC2)nc(Nc2ccc(C#N)cc2)n1,100,2140,22,4.6,0.047,33
Cc1cc(C)c(Nc2cc(NC3CCN(Cc4ccc(S(N)(=O)=O)cc4)CC3)nc(Nc3ccc(C#N)cc3)n2)c(C)c1,6.4,83,< 1,> 6.4,0.077,–
Cc1cc(C#N)cc(C)c1Oc1cc(NC2CCN(Cc3ccc(S(C)(=O)=O)cc3)CC2)nc(Nc2ccc(C#N)cc2)n1,> 206,> 3550,1,> 206,0.058,–
Cc1cc(C)c(Oc2cc(NC3CCN(Cc4ccc(S(C)(=O)=O)cc4)CC3)nc(Nc3ccc(C#N)cc3)n2)c(C)c1,124,934,≤ 8,≥ 16,0.13,–
CC(C)Nc1cccnc1N1CCN(C(=O)c2cc3cc(NS(C)(=O)=O)ccc3[nH]2)CC1 [DELAVIRDINE MESYLATE],> 36,> 227,1,> 36,0.13,–
Cc1ccnc2c1NC(=O)c1cccnc1N2C1CC1 [NEVIRAPINE],> 15,–,–,2.5,0.17,–
Cc1cc(C)c(Oc2cc(NC3CCN(Cc4ccncc4)CC3)nc(Nc3ccc(C#N)cc3)n2)c(C)c1,11,44,< 1,> 11,0.24,–
Cc1cc(C)c(Oc2cc(NC3CCNCC3)nc(Nc3ccc(C#N)cc3)n2)c(C)c1,9.6,69,≤ 5,≥ 1.8,0.14,–
